Results on 3 molecules are retold here after patent publication US7732420B2, “Combinations of transfection lipids exhibiting increased transfection efficiencies” (Northwestern University, priority 2003, dated 2010).

Structures are written as SMILES.

Assay [1] has as its system human umbilical artery endothelial cells (HUAECs). The experiment in a line: Transfection of HUAEC with lipoplexes, β-galactosidase expression. It counts as cell-based. Particulars: lipid used individually. As for the experimental part: The cells were seeded in 96-well plates at 24 hours before transfection at densities to give about 80% confluence at the time of transfection. Chloroform solutions of EDLPC with EDOPC and EDLPC with EDMPC were mixed at the different ratios and then chloroform was removed under N2 stream and vacuum. The lipid mixtures were hydrated in HBSS at 1 mg/ml to form liposomes. Liposomes and plasmid DNA were diluted in OptiMEM to 80 μg/ml for lipid and to 20 μg/ml for DNA, and liposomes were pipetted into an equal volume of plasmid DNA solution at a 4:1 weight ratio and mixed gently. The resultant DNA (plasmid with β-galactosidase marker gene)—lipid complexes were incubated at room temperature for 15 min and then added to the cells that were either in medium lacking serum (black bars) or medium containing 5% serum (gray bars). The lipoplexes had 35% (lipoid) excess positive over negative (DNA) charge. Cells were assayed for β-galactosidase expression 24 hours after transfection. Data represent the mean±S.D. of a representative experiment performed in quadruplicate. ˜20,000 fluorescence units corresponded approximately to 0.1 milliunit of β-galactosidase.
Cells were treated with DNA-lipid complex for 2 h in the absence (“no serum”) or presence of serum (“serum”) and then washed with HBSS and supplemented with fresh culture medium. Data represent the mean±S.D. of a representative experiment performed in quadruplicate.
Cells were treated with DNA-lipid complex for 2 h in the absence (“no serum”) or presence of 5% normal serum (“normal serum”) or 5% delipidated serum (“delipidated serum”) and then washed with HBSS and supplemented with fresh regular culture medium. Data represent the mean±S.D. of a representative experiment performed in quadruplicate.
Conditions were identical with those described in FIG. 1 except that different lipoid mixtures were used. Ditetradecyldimethyammonium (di C 14 substituted quaternary ammonium) was mixed with dioctadecylammonium (di C 18 quaternary ammonium).

In the next assay the test system is HUAECs. The experiment in a line: Intracellular distribution of fluorescent lipid and oligonucleotide of lipoplexes. It counts as cell-based, human. How it is done: Lipoplexes were labeled with a fluoresce in derivative of a double-stranded dodecameric oligonucleotide. Cells were incubated with the resulting lipoplexes in the presence of serum for 2 h and imaged under a fluorescence microscope at 2 h later after being washed with HBSS.
In order to determine if this pattern of fusion is also observed within cells (e.g., the mixture is more prone to fuse with endosomal membranes facilitating escape of DNA from endosomal degradation and nuclei entrance) the intracellular distribution of fluorescent lipid and oligonucleotide in EDOPC and EDLPC/EDOPC (60/40) lipoplexes was investigated. […] Lipoplexes were labeled with a fluorescein derivative of a double-stranded dodecameric oligonucleotide. Cells were incubated with the resulting lipoplexes in the presence of serum for 2 h and imaged under a fluorescence microscope after being washed in HBSS. […] Similar images were obtained with fluorescent plasmid DNA, although the fluorescence of the nucleus was less intense.

Consider `CCCCCCCCCCCC(=O)OC[C@H](COP(=O)(OCC)OCC[N+](C)(C)C)OC(=O)CCCCCCCCCCC` (some centres unmarked) [EDLPC, 1,2-dilauroyl-sn-glycero-3-ethylphosphocholine], for which the “transfection activity of the individual lipid” value (“transfection activity” below) in assay [1] is listed as “quite weak transfection reagents”.
As for `CCCCCCCCCCCCCC(=O)OC[C@H](COP(=O)(OCC)OCC[N+](C)(C)C)OC(=O)CCCCCCCCCCCCC` (some centres unmarked) [EDMPC, 1,2-dimyristol-sn-glycero-3-ethylphosphocholine], the “transfection activity” value in assay [1] is given as “quite weak transfection reagents”.
`CCCCCCCC/C=C\CCCCCCCC(=O)OC[C@@H](COP(=O)(OCC)OCC[N+](C)(C)C)OC(=O)CCCCCCC/C=C\CCCCCCCC` (some centres unmarked) [EDOPC, 1,2-dioleoyl-sn-glycero-3-ethylphosphocholine]: the “transfection activity” value in assay [1] is “quite weak transfection reagents”. In the assay on HUAECs (fluorescent lipid in lipoplexes), the “intracellular distribution of lipid” value is “remained in the cytoplasm for at least 20 hours”. For the same molecule, the “intracellular distribution of oligonucleotide” value in the assay with HUAECs (fluorescent oligonucleotide in lipoplexes, in the presence of serum) is “remained in the cytoplasm for at least 20 hours”.
